Laboratory results: PubChem BioAssay (NCI)
Values joined by “and” are separate entries in the source; they are usually repeats but may differ in a detail not shown here. Equal entries are not always repeated.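 Growth conditions: 96-well plates. Treatment: test compound, 48 hours, 5 concentrations. Analysis: linear interpolation between bracketing concentrations; unreached endpoints set to highest concentration. GI50 = concentration required for 50% inhibition of growth. TGI is the concentration that stops growth completely.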

What was measured:
Test in all cases: DTP human tumour cell line panel, 48 h
HCC-2998 colon = tested on: HCC-2998 colon
K-562 leukemia = tested on: K-562 leukemia
SF-295 CNS = tested on: SF-295 CNS
SK-MEL-28 melanoma = tested on: SK-MEL-28 melanoma
SN12C renal = tested on: SN12C renal
UACC-257 melanoma = tested on: UACC-257 melanoma
HS 578T breast = tested on: HS 578T breast
HT29 colon = tested on: HT29 colon
MCF7 breast = tested on: MCF7 breast
T-47D breast = tested on: T-47D breast

SMILES	TGI (HCC-2998 colon)	TGI (K-562 leukemia)	TGI (SF-295 CNS)	TGI (SK-MEL-28 melanoma)	TGI (SN12C renal)	TGI (UACC-257 melanoma)	GI50 (HCC-2998 colon)	GI50 (HS 578T breast)	TGI (HS 578T breast)	GI50 (HT29 colon)	TGI (HT29 colon)	GI50 (K-562 leukemia)	GI50 (MCF7 breast)	TGI (MCF7 breast)	GI50 (SF-295 CNS)	GI50 (SN12C renal)	GI50 (T-47D breast)	TGI (T-47D breast)	GI50 (UACC-257 melanoma)	GI50 (SK-MEL-28 melanoma)
CCOC(C)C(/C=N/NC(N)=S)=NNC(N)=S (centres undefined)	> 100 µM	> 100 µM	> 100 µM	> 100 µM	> 100 µM	> 100 µM	–	–	–	–	–	–	–	–	–	–	–	–	–	–
N#C/C(=C\c1ccc(-c2ccc(Cl)cc2)o1)C(=O)Nc1ncc(Cc2ccc(Cl)cc2)s1	> 100 µM	> 100 µM	8.73 µM	–	3.32 µM	> 100 µM	3.63 µM	1.59 µM	7.8 µM	3.42 µM	> 100 µM	3.92 µM	2.51 µM	> 100 µM	2.84 µM	1.28 µM	1.91 µM	5.2 µM	4.06 µM	–
Cc1cc(NS(=O)(=O)c2ccc(N=Nc3cc(N=Nc4ccc(S(=O)(=O)Nc5cc(C)nc(C)n5)cc4)c4c(NC(=O)C(Cl)Cl)cccc4c3OC(=O)C(Cl)Cl)cc2)nc(C)n1 (tested in a mixture with another compound)	35.8 µM	> 100 µM	77.6 µM	52.2 µM	37.8 µM	70.2 µM	–	–	–	–	46 µM	–	–	–	–	–	–	–	–	–
[O-]c1c2c(nn1-c1ccccc1)c1ccccc1c[n+]2Cc1ccccc1	> 100 µM	> 100 µM	> 100 µM	> 100 µM	> 100 µM	> 100 µM	–	–	–	–	> 100 µM	–	–	–	–	–	–	–	–	–
COC(=O)C1=C(O)c2cc(OC)c(OC)c(OC)c2[C@H](c2cc(OC)c(OC)c(OC)c2)C1C(=O)OC (some centres undefined)	83.9 µM	86.1 µM	98.1 µM	> 100 µM	> 100 µM	> 100 µM	–	–	–	–	61.6 µM	–	–	–	–	–	–	–	–	–
COC(=O)C1=C2CCC(=O)[C@@]2(C)C(OC(C)=O)C=CC1 (some centres undefined)	> 100 µM	> 100 µM	> 100 µM	> 100 µM	> 100 µM	> 100 µM	–	–	–	–	> 100 µM	–	–	–	–	–	–	–	–	–
CCC[CH2][Sn]1([CH2]CCC)[O]C(=O)c2cc(I)cc(I)c2[O]1	2.7 µM	1.25 µM	3.53 µM	–	2.96 µM	2.55 µM	1.37 µM	–	–	2.03 µM	4.21 µM	0.284 µM	–	–	1.91 µM	1.42 µM	–	–	1.24 µM	–
CCOC(=O)/C(O)=C(/c1n[nH]c(=O)c2ccccc12)[N+](=O)[O-]	> 100 µM	> 100 µM	> 100 µM	> 100 µM	> 100 µM	> 100 µM	–	–	–	–	> 100 µM	–	–	–	–	–	–	–	–	–
Nc1nc(N)c(N=O)c(Nc2ccc(O)cc2)n1	> 100 µM	> 92.1 µM	> 65.1 µM	> 100 µM	> 100 µM	> 100 µM	–	–	58.8 µM	–	> 100 µM	–	–	–	–	–	–	> 96.1 µM	–	–
O=c1cccccc1NCCOCCNc1cccccc1=O	> 100 µM	> 100 µM	> 100 µM	> 100 µM	> 100 µM	> 100 µM	–	–	–	–	> 100 µM	–	–	–	–	–	–	–	–	–
CCCN(CCCCC(NC(C)=O)C(=O)NCc1ccccc1)C(=O)N(C)N=O (centres undefined)	> 100 µM	> 100 µM	> 100 µM	> 100 µM	> 100 µM	> 100 µM	–	–	–	–	> 100 µM	–	–	–	–	–	–	–	–	–
COc1cc(C2=NN(C)C(c3ccc([N+](=O)[O-])o3)C2)cc(OC)c1OC (centres undefined)	> 100 µM	> 100 µM	> 100 µM	> 100 µM	> 100 µM	> 100 µM	–	–	–	–	> 100 µM	–	–	–	–	–	–	–	–	–
O=S(=O)(/C=C/c1ccc(Cl)cc1Cl)Cc1ccccc1CS(=O)(=O)/C=C/c1ccc(Cl)cc1Cl	> 100 µM	> 100 µM	> 100 µM	> 100 µM	> 100 µM	> 100 µM	–	–	–	–	> 100 µM	–	–	–	–	–	–	–	–	–
COc1ccc(C(=O)C(c2ccc(OC)cc2)C2(O)C(=O)Nc3ccccc32)cc1 (centres undefined)	–	> 100 µM	> 100 µM	> 100 µM	> 100 µM	> 100 µM	–	–	–	–	> 100 µM	–	–	–	–	–	–	–	–	–
CN(C)CCNC(=O)c1cc2ccccc2c2nc3ccccc3nc12	3.92 µM	1.96 µM	–	2.96 µM	3.89 µM	3.09 µM	–	–	–	–	2.9 µM	–	–	–	–	–	–	–	–	–
O=c1cc(-c2cccc(C(F)(F)F)c2)[nH]c2cc3c(cc12)OCO3	–	> 100 µM	–	50 µM and 53.9 µM	50 µM and > 100 µM	–	0.493 µM	–	17.5 µM	3.11 µM	40.8 µM and 13 µM	–	0.95 µM	50 µM and > 100 µM	–	0.735 µM	> 100 µM	> 100 µM	–	0.455 µM
O=S(=O)(O)O.[NH-]C1CCCCC1[NH-].[Pt+2] (centres undefined)	> 100 µM	> 100 µM	> 100 µM	> 100 µM	> 100 µM	> 100 µM	> 100 µM	–	–	63.1 µM	> 100 µM	37 µM	–	–	> 100 µM	> 100 µM	–	–	> 100 µM	> 100 µM
C/C(CC(=O)Nc1ccc(Cl)c(Cl)c1)=N/NC(=O)C[n+]1ccccc1	> 100 µM	> 100 µM	> 100 µM	> 100 µM	> 100 µM	> 100 µM	–	–	–	–	> 100 µM	–	–	–	–	–	–	–	–	–
Oc1ccccc1-c1nn(CNc2cccc(Cl)c2)c(=S)o1	–	> 100 µM	> 100 µM	–	> 100 µM	> 100 µM	–	69.1 µM	> 100 µM	18.5 µM	> 100 µM	38.4 µM	37.9 µM	> 100 µM	> 100 µM	> 100 µM	28.7 µM	> 100 µM	> 100 µM	–
c1ccc(Cn2cc3c(c2-c2ccccc2)CCc2cnoc2-3)cc1	–	7.31 µM	31.5 µM	> 100 µM	> 100 µM	> 100 µM	–	3.88 µM	26.4 µM	3.11 µM	33.4 µM	2.14 µM	3.44 µM	> 100 µM	3.16 µM	7.83 µM	4.5 µM	> 100 µM	17.7 µM	6.58 µM
COc1ccc(C(=O)OCC2OC(n3cnc4c(=S)nc[nH]c43)C(OC(=O)c3ccc(OC)cc3)C2OC(=O)c2ccc(OC)cc2)cc1 (centres undefined)	> 100 µM	> 100 µM	> 100 µM	> 100 µM	–	> 100 µM	–	–	–	–	> 100 µM	–	–	–	–	–	–	–	–	–
